Some test systems named below: SF-539; LOX IMVI; UACC-62; Hs-578T; SR; DU-145; PC-3; HOP-92; SNB-75; OVCAR-5; NCI-H460; CAKI-1; NCI-H23; UO-31; SNB-19; Malme-3M; HCC 2998; TK-10; SK-MEL-28; MOLT-4.
Common to all, as to assay: DTP human tumour cell line panel, 48 h

The values below come from ChEMBL document CHEMBL1201862, “PubChem BioAssay data set” (2004).

The term GI50 denotes the concentration that inhibits growth by half.

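Method: 48-hour compound exposure of cells in 96-well plates, five concentrations, linear interpolation of endpoints. Abbreviation: GI50, concentration required for 50% inhibition of growth.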 Calls of active or inactive are those of the source. Cut-off read from the data, not from the text of the source: active = GI50 up to about 1.1 µM and inactive = higher.

Consider `CN1C(c2ccccc2)CC(=NOCc2ccccc2)CC1c1ccccc1` (stereo not given), for which the GI50 with SF-539 is 36.9 µM (inactive); in the test with LOX IMVI, 14.8 µM (inactive); with UACC-62, 52.4 µM (inactive); in the test on Hs-578T, 36 µM (inactive); in the test on SR, 13.6 µM (inactive); in the test on DU-145 it was 47.6 µM (inactive). Moreover, the GI50 was 24.7 µM (inactive) in the test on PC-3; 48.9 µM (inactive) in the test with HOP-92; 31.4 µM (inactive) in the test with SNB-75; 70.8 µM (inactive) in the test with OVCAR-5; 19.1 µM (inactive) with NCI-H460; 55 µM (inactive) with CAKI-1. In addition, the GI50 with NCI-H23 is 28.2 µM (inactive); in the test with UO-31, 43.6 µM (inactive); with SNB-19, 44.3 µM (inactive); in the test on Malme-3M, 50.9 µM (inactive); in the test with HCC 2998, > 71.9 µM (inactive); in the test with TK-10, 46.9 µM (inactive). In addition, the figures for the GI50 in the test with SK-MEL-28 and in the test on MOLT-4 were 40.8 µM (inactive) and 23.7 µM (inactive), respectively.

`Cc1noc(C)c1-n1nc2ccc3nonc3c2n1`: the GI50 in the test on SF-539 was 41.5 µM (inactive); in the test on LOX IMVI it was > 100 µM (inactive); in the test with UACC-62 it was > 59.8 µM (inactive); in the test on Hs-578T it was 29 µM (inactive); with SR, > 100 µM (inactive); in the test on DU-145 it was > 100 µM (inactive). Moreover, the GI50 in the test on PC-3 is > 100 µM (inactive); with HOP-92, 29.1 µM (inactive); in the test on SNB-75, 33.1 µM (inactive); with OVCAR-5, > 100 µM (inactive); in the test with NCI-H460 it was > 100 µM (inactive); in the test with CAKI-1, > 83.8 µM (inactive). In addition, the GI50 in the test on NCI-H23 was > 72.8 µM (inactive); with UO-31, 47.2 µM (inactive); in the test with SNB-19 it was 32.3 µM (inactive); in the test with Malme-3M it was > 100 µM (inactive); in the test with HCC 2998 it was > 100 µM (inactive); in the test with TK-10 it was 24.8 µM (inactive). Moreover, the GI50 in the test on SK-MEL-28 and in the test with MOLT-4 was > 100 µM (inactive) throughout.

For `COc1ccc(C[C@H]2NC[C@H](O)[C@H]2OC(C)=O)cc1` [ANISOMYCIN], the GI50 with SF-539 was 0.0213 µM (active); in the test with LOX IMVI, 0.0131 µM (active); with UACC-62, 0.0362 µM (active); in the test on Hs-578T it was 0.01 µM (active); with SR it was < 0.0143 µM (active); in the test with DU-145, 0.0223 µM (active). For the same compound, the GI50 with PC-3 was < 0.0191 µM (active); in the test with HOP-92 it was 0.016 µM (active); in the test on SNB-75, < 0.0106 µM (active); in the test on OVCAR-5, 0.0478 µM (active); with NCI-H460 it was 0.0169 µM (active); with CAKI-1, 0.0106 µM (active). The GI50 with NCI-H23 is 0.0316 µM (active); in the test with UO-31, 0.0404 µM (active); with SNB-19, < 0.0177 µM (active); in the test on Malme-3M, 0.0552 µM (active); in the test with HCC 2998, 0.0229 µM (active); in the test on TK-10, 0.0479 µM (active). In addition, the GI50 in the test with SK-MEL-28 is 0.0239 µM (active); with MOLT-4, < 0.013 µM (active).

`CC(=O)O[C@@H]1CO[C@H]2O[C@H]3[C@@H](C(C=O)=C[C@H](O)[C@@H]4C5=C(C(C)C)CC[C@]5(C)CC[C@@]34C)[C@@]2(O)C1=O` [STRIATIN E]: the GI50 in the test on SF-539 is 0.177 µM (active); in the test on LOX IMVI, 0.277 µM (active); in the test with UACC-62 it was 0.515 µM (active); with Hs-578T, 0.221 µM (active); in the test with SR, 0.146 µM (active); in the test on DU-145 it was 0.716 µM (active). For the same compound, the GI50 in the test on PC-3 is 0.0968 µM (active); in the test on HOP-92, 0.21 µM (active); in the test with SNB-75 it was 0.0736 µM (active); with OVCAR-5, 0.303 µM (active); in the test with NCI-H460, 0.255 µM (active); in the test with CAKI-1, 0.2 µM (active). The GI50 is 0.209 µM (active) in the test with NCI-H23; 0.241 µM (active) in the test on UO-31; 0.692 µM (active) in the test on SNB-19; 0.177 µM (active) in the test with Malme-3M; 0.519 µM (active) in the test with HCC 2998; 0.229 µM (active) in the test on TK-10. Further, the GI50 in the test on SK-MEL-28 was 0.234 µM (active); in the test with MOLT-4, 0.0906 µM (active).
